Key:
[1] = tested on: α-isomaltosylglucosaccharide-forming enzyme from Bacillus globisporus C11; experiment: Action on saccharides (TLC before and after enzymatic reaction); assay type: biochemical; design: key: −: it showed no change; +: it showed a slight reduction of the color spot of the substrate and the formation of other reaction product; ++: it showed a high reduction of the color spot of the substrate and the formationof other reaction product; +++: it showed a substantial disappearance of the substrate spot and the formation of other reaction product; settings: two units/g substrate, substrate 2% (w/v), 30° C., pH 6.0, 24 hours
Procedure: (§1) It was tested whether saccharides can be used as substrates for the polypeptide of α-isomaltosylglucosaccharide-forming enzyme of the present invention. For the purpose, a solution of maltose, maltotriose, maltotetraose, maltopentaose, maltohexaose, maltoheptaose, isomaltose, isomaltotriose, panose, isopanose, trehalose, kojibiose, nigerose, neotrehalose, cellobiose, gentibiose, maltitol, maltotriitol, lactose, sucrose, erlose, selaginose, maltosyl glucoside, or isomaltosyl glucoside was prepared.
(§2) To each of the above solutions was added two units/g substrate of a purified polypeptide specimen of α-isomaltosylglucosaccharide-forming enzyme from either Bacillus globisporus C11 obtained by the method in Experiment 1-3, Bacillus globisporus N75 obtained by the method in Experiment 2-3, or Arthrobacter globiformis A19 obtained by the method in Experiment 3-3, and the resulting each solution was adjusted to give a substrate concentration of 2% (w/v) and incubated at 30° C. and pH 6.0, except for using pH 8.4 for the enzyme from Arthrobacter globiformis A19, for 24 hours. In order to analyze the saccharides in the reaction mixture before and after the enzymatic reaction, silica gel thin-layer chromatography (hereinafter, abbreviated as “TLC”) was carried out. After two-times development using, as a developer, a mixture solution of n-butanol, pyridine, and water (=6:4:1), and, as a thin-layer plate, “KIESELGEL 60”, an aluminum plate (20×20 cm) for TLC commercialized by Merck & Co., Inc., Rahway, USA, the saccharides in the reaction mixture were examined whether the enzyme acted or not by the coloration of sugars by the sulfuric acid-methanol method.

[2] = tested on: α-isomaltosylglucosaccharide-forming enzyme from Arthrobacter globiformis A19; experiment: as above; assay type: biochemical; design: key: −: it showed no change; +: it showed a slight reduction of the color spot of the substrate and the formation of other reaction product; ++: it showed a high reduction of the color spot of the substrate and the formationof other reaction product; +++: it showed a substantial disappearance of the substrate spot and the formation of other reaction product; settings: two units/g substrate, substrate 2% (w/v), 30° C., pH 8.4, 24 hours
Procedure: as §1, §2

[3] = tested on: α-isomaltosylglucosaccharide-forming enzyme from Bacillus globisporus N75; experiment: as above; assay type: biochemical; design: key: −: it showed no change; +: it showed a slight reduction of the color spot of the substrate and the formation of other reaction product; ++: it showed a high reduction of the color spot of the substrate and the formationof other reaction product; +++: it showed a substantial disappearance of the substrate spot and the formation of other reaction product; settings: two units/g substrate, substrate 2% (w/v), 30° C., pH 6.0, 24 hours
Procedure: as §1, §2

[4] = tested on: polypeptide having α-isomaltosylglucosaccharide-forming enzyme activity, obtained in Experiment 1-3; experiment: Reaction product from maltooligosaccharide (sugar composition by HPLC); assay type: biochemical, Bacillus globisporus C11; design: unit not given here; settings: 1% (w/v) substrate, 35° C., pH 6.0, 8 hours; for Sugar composition of reaction mixture, substrate Maltopentaose: 0.1 unit/g-solid; for Sugar composition of reaction mixture, substrate Maltotetraose: 0.2 unit/g-solid; for Sugar composition of reaction mixture, substrate Maltotriose / Sugar composition of reaction mixture, substrate Mlatose: two units/g-solid
Procedure: To an aqueous solution containing one percent (w/v) of maltose, maltotriose, maltotetraose, or maltopentaose as a substrate was added the polypeptide having α-isomaltosylglucosaccgaride-forming enzyme activity, obtained in Experiment 1-3, in an amount of two units/g-solid for maltose and maltotriose, 0.2 unit/g-solid for maltotetraose, and 0.1 unit/g-solid for maltopentaose, followed by incubation at 35° C. and pH 6.0 for 8 hours. After stopping the enzymatic reaction by a 10-minutes incubation, sugar compositions in the reaction mixture were measured by HPLC using “YMC Pack ODS-AQ303”, a column commercialized by YMC Co., Ltd., Tokyo, Japan, at a column temperature of 40° C. and a flow rate of 0.5 ml/minutes of water, and using as a detector “RI-8012”, a differential refractometer commercialized by Tosoh Corporation, Tokyo, Japan.

Molecule: O=C[C@H](O)[C@@H](O)[C@H](O[C@@H]1O[C@H](CO)[C@@H](O)[C@H](O)[C@H]1O)[C@H](O)CO [Cellobiose, cellobiose]
- Enzyme action, C11 enzyme [1]: −
- Enzyme action, A19 enzyme [2]: −
- Enzyme action, N75 enzyme [3]: −

Molecule: OC[C@H]1O[C@@H](OC[C@H]2OC(O)[C@H](O)[C@@H](O)[C@@H]2O)[C@H](O)[C@@H](O)[C@@H]1O (stereo partly drawn) [Gentibiose, gentibiose]
- Enzyme action, C11 enzyme [1]: −
- Enzyme action, A19 enzyme [2]: −
- Enzyme action, N75 enzyme [3]: −

Molecule: OC[C@H]1O[C@H](OC[C@H]2O[C@H](O[C@H]3[C@H](O)[C@@H](O)[C@@H](O[C@H]4[C@H](O)[C@@H](O)[C@@H](O)O[C@@H]4CO)O[C@@H]3CO)[C@H](O)[C@@H](O)[C@@H]2O)[C@H](O)[C@@H](O)[C@@H]1O [Glucosylmaltotriose, α-isomaltosylmaltose]
- Sugar composition of reaction mixture, substrate Maltopentaose [4]: 0.0
- Sugar composition of reaction mixture, substrate Maltotetraose [4]: 6.8
- Sugar composition of reaction mixture, substrate Maltotriose [4]: 31.5
- Sugar composition of reaction mixture, substrate Mlatose [4]: 2.4

Molecule: OC[C@H]1O[C@H](OC[C@H]2OC(O)[C@H](O)[C@@H](O)[C@@H]2O)[C@H](O)[C@@H](O)[C@@H]1O (stereo partly drawn) [Isomaltose, isomaltose]
- Sugar composition of reaction mixture, substrate Maltopentaose [4]: 0.0
- Sugar composition of reaction mixture, substrate Maltotetraose [4]: 0.0
- Sugar composition of reaction mixture, substrate Maltotriose [4]: 0.0
- Sugar composition of reaction mixture, substrate Mlatose [4]: 0.5
- Enzyme action, C11 enzyme [1]: −
- Enzyme action, A19 enzyme [2]: −
- Enzyme action, N75 enzyme [3]: −

Molecule: OC[C@H]1O[C@H](OC[C@H]2O[C@H](OC[C@H]3OC(O)[C@H](O)[C@@H](O)[C@@H]3O)[C@H](O)[C@@H](O)[C@@H]2O)[C@H](O)[C@@H](O)[C@@H]1O (stereo partly drawn) [Isomaltotriose, isomaltotriose]
- Enzyme action, C11 enzyme [1]: −
- Enzyme action, A19 enzyme [2]: −
- Enzyme action, N75 enzyme [3]: −

Molecule: OC[C@H]1O[C@H](O[C@H]2[C@H](O)[C@@H](O)[C@@H](OC[C@H]3OC(O)[C@H](O)[C@@H](O)[C@@H]3O)O[C@@H]2CO)[C@H](O)[C@@H](O)[C@@H]1O (stereo partly drawn) [Isopanose, isopanose]
- Enzyme action, C11 enzyme [1]: ++
- Enzyme action, A19 enzyme [2]: ++
- Enzyme action, N75 enzyme [3]: ++

Molecule: OC[C@H]1O[C@@H](O[C@H]2[C@H](O)[C@@H](O)C(O)O[C@@H]2CO)[C@H](O)[C@@H](O)[C@H]1O (stereo partly drawn) [Lactose, lactose]
- Enzyme action, C11 enzyme [1]: −
- Enzyme action, A19 enzyme [2]: −
- Enzyme action, N75 enzyme [3]: −

Molecule: OC[C@@H](O)[C@@H](O[C@H]1O[C@H](CO)[C@@H](O)[C@H](O)[C@H]1O)[C@H](O)[C@@H](O)CO [Maltitol, maltitol]
- Enzyme action, C11 enzyme [1]: −
- Enzyme action, A19 enzyme [2]: −
- Enzyme action, N75 enzyme [3]: −

Molecule: OC[C@H]1O[C@H](O[C@H]2O[C@H](CO)[C@@H](O[C@H]3O[C@H](CO)[C@@H](O)[C@H](O)[C@H]3O)[C@H](O)[C@H]2O)[C@H](O)[C@@H](O)[C@@H]1O [Maltosyl glucoside, maltosyl glucoside]
- Enzyme action, C11 enzyme [1]: ++
- Enzyme action, A19 enzyme [2]: ++
- Enzyme action, N75 enzyme [3]: ++

Molecule: OC[C@H]1O[C@H](O[C@H]2[C@H](O)[C@@H](O)[C@@H](O[C@H]3[C@H](O)[C@@H](O)[C@@H](O[C@H]4[C@H](O)[C@@H](O)C(O)O[C@@H]4CO)O[C@@H]3CO)O[C@@H]2CO)[C@H](O)[C@@H](O)[C@@H]1O (stereo partly drawn) [Maltotetraose, maltotetraose]
- Sugar composition of reaction mixture, substrate Maltopentaose [4]: 19.2
- Sugar composition of reaction mixture, substrate Maltotetraose [4]: 35.1
- Sugar composition of reaction mixture, substrate Maltotriose [4]: 1.8
- Sugar composition of reaction mixture, substrate Mlatose [4]: 0.0
- Enzyme action, C11 enzyme [1]: +++
- Enzyme action, A19 enzyme [2]: +++
- Enzyme action, N75 enzyme [3]: +++

Molecule: OC[C@H]1O[C@H](OC[C@H]2O[C@H](O[C@H]3[C@H](O)[C@@H](O)C(O)O[C@@H]3CO)[C@H](O)[C@@H](O)[C@@H]2O)[C@H](O)[C@@H](O)[C@@H]1O (stereo partly drawn) [Panose, panose]
- Sugar composition of reaction mixture, substrate Maltopentaose [4]: 0.0
- Sugar composition of reaction mixture, substrate Maltotetraose [4]: 0.0
- Sugar composition of reaction mixture, substrate Maltotriose [4]: 1.2
- Sugar composition of reaction mixture, substrate Mlatose [4]: 8.2
- Enzyme action, C11 enzyme [1]: −
- Enzyme action, A19 enzyme [2]: −
- Enzyme action, N75 enzyme [3]: −

Molecule: OC[C@H]1O[C@H](O[C@H]2O[C@H](CO)[C@@H](O)[C@H](O)[C@H]2O[C@H]2O[C@H](CO)[C@@H](O)[C@H](O)[C@H]2O)[C@H](O)[C@@H](O)[C@@H]1O [Selaginose, selaginose]
- Enzyme action, C11 enzyme [1]: −
- Enzyme action, A19 enzyme [2]: −
- Enzyme action, N75 enzyme [3]: −

Molecule: OC[C@H]1O[C@@](CO)(O[C@H]2O[C@H](CO)[C@@H](O)[C@H](O)[C@H]2O)[C@@H](O)[C@@H]1O [Sucrose, sucrose]
- Enzyme action, C11 enzyme [1]: −
- Enzyme action, A19 enzyme [2]: −
- Enzyme action, N75 enzyme [3]: −

Molecule: OC[C@H]1O[C@H](O[C@H]2O[C@H](CO)[C@@H](O)[C@H](O)[C@H]2O)[C@H](O)[C@@H](O)[C@@H]1O [Trehalose, trehalose]
- Enzyme action, C11 enzyme [1]: −
- Enzyme action, A19 enzyme [2]: −
- Enzyme action, N75 enzyme [3]: −

Molecule: OC[C@H]1O[C@H](OC[C@H]2O[C@H](O[C@H]3[C@H](O)[C@@H](O)[C@@H](O[C@H]4[C@H](O)[C@@H](O)[C@@H](O[C@H]5[C@H](O)[C@@H](O)C(O)O[C@@H]5CO)O[C@@H]4CO)O[C@@H]3CO)[C@H](O)[C@@H](O)[C@@H]2O)[C@H](O)[C@@H](O)[C@@H]1O (stereo partly drawn) [X, α-isomaltosylmaltotriose]
- Sugar composition of reaction mixture, substrate Maltopentaose [4]: 11.4
- Sugar composition of reaction mixture, substrate Maltotetraose [4]: 30.0
- Sugar composition of reaction mixture, substrate Maltotriose [4]: 2.1
- Sugar composition of reaction mixture, substrate Mlatose [4]: 0.0

Molecule: OC[C@H]1O[C@H](OC[C@H]2O[C@H](O[C@H]3[C@H](O)[C@@H](O)[C@@H](O[C@H]4[C@H](O)[C@@H](O)[C@@H](O[C@H]5[C@H](O)[C@@H](O)[C@@H](O[C@H]6[C@H](O)[C@@H](O)C(O)O[C@@H]6CO)O[C@@H]5CO)O[C@@H]4CO)O[C@@H]3CO)[C@H](O)[C@@H](O)[C@@H]2O)[C@H](O)[C@@H](O)[C@@H]1O (stereo partly drawn) [Y, α-isomaltosylmaltotetraose]
- Sugar composition of reaction mixture, substrate Maltopentaose [4]: 26.8
- Sugar composition of reaction mixture, substrate Maltotetraose [4]: 1.4
- Sugar composition of reaction mixture, substrate Maltotriose [4]: 0.0
- Sugar composition of reaction mixture, substrate Mlatose [4]: 0.0

Molecule: isomaltosyl glucoside
- Enzyme action, C11 enzyme [1]: −
- Enzyme action, A19 enzyme [2]: −
- Enzyme action, N75 enzyme [3]: −

Molecule: maltoheptaose
- Enzyme action, C11 enzyme [1]: +++
- Enzyme action, A19 enzyme [2]: +++
- Enzyme action, N75 enzyme [3]: +++
